Where “and” joins values, the source holds several entries; their conditions need not be identical. Identical values can stand only once.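 Values below derive from 48-hour exposures of cells grown in 96-well plates, with endpoints linearly interpolated between the two concentrations bracketing the appropriate inhibition level. GI50 = concentration required for 50% inhibition of growth. TGI: total growth inhibition.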 Some results are limits rather than exact numbers.

Among the test systems are MDA-MB-231 breast; SK-MEL-28 melanoma; ACHN renal; HL-60(TB) leukemia; SF-295 CNS; MOLT-4 leukemia; PC-3 prostate; SW-620 colon; DU-145 prostate; OVCAR-8 ovarian.
What all share (assay): NCI anticancer screen, dose series, 48 h

As for `COc1ccc(/C=C2\COc3ccc(O)c(O)c3C2=O)c(OC)c1OC`, the GI50 in the test with MDA-MB-231 breast was 2.22 µM; in the test on SK-MEL-28 melanoma, 2.63 µM; in the test with ACHN renal it was 1.78 µM; with HL-60(TB) leukemia, 2.4 µM; in the test with SF-295 CNS it was 8.1 µM; in the test on MOLT-4 leukemia, 1.87 µM. The GI50 with PC-3 prostate was 2.35 µM; with SW-620 colon, 2.77 µM; with DU-145 prostate it was 3.64 µM; in the test on OVCAR-8 ovarian, 3.16 µM. Also, the TGI with MDA-MB-231 breast was 7.43 µM; in the test on SK-MEL-28 melanoma, 7.37 µM; in the test on ACHN renal, 3.96 µM; in the test with HL-60(TB) leukemia it was 6.71 µM; in the test on SF-295 CNS it was > 100 µM; in the test with MOLT-4 leukemia it was > 100 µM. The TGI in the test with PC-3 prostate is 61.8 µM; with SW-620 colon it was 9.53 µM; in the test with DU-145 prostate, 26 µM; with OVCAR-8 ovarian, > 100 µM.
`O=C1C=CC(=C(c2ccccc2)c2ccc(O)cc2)C=C1`: the TGI was 32.4 µM with MDA-MB-231 breast; 31.9 µM with SK-MEL-28 melanoma; 39.2 µM in the test with ACHN renal; 47.2 µM with HL-60(TB) leukemia; 39.6 µM with SF-295 CNS; > 100 µM with MOLT-4 leukemia. For the same compound, the TGI with PC-3 prostate came out at 47.5 µM; in the test with SW-620 colon, 90.9 µM; with DU-145 prostate, 53.6 µM; in the test on OVCAR-8 ovarian it was 44.1 µM.
Turning to `COc1cc(/C=C2\CCC/C(=C\c3ccc(O)c(OC)c3)C2=O)ccc1O`, the GI50 in the test on MDA-MB-231 breast is 2.85 µM; in the test with SK-MEL-28 melanoma, 1.68 µM; in the test with ACHN renal, 1.82 µM; in the test with HL-60(TB) leukemia it was 0.397 µM; in the test with SF-295 CNS, 1.71 µM; in the test on MOLT-4 leukemia, 2.18 µM. Moreover, the GI50 is 3.14 µM in the test with PC-3 prostate, 1.84 µM in the test on SW-620 colon, 1.72 µM with DU-145 prostate and 2.49 µM in the test on OVCAR-8 ovarian. The TGI with MDA-MB-231 breast was 25.7 µM and 11.1 µM; in the test on SK-MEL-28 melanoma, 16.4 µM and 4.05 µM; in the test with ACHN renal, 4.34 µM and 3.33 µM; in the test with HL-60(TB) leukemia, 10.7 µM and 10.8 µM; in the test on SF-295 CNS, 9.16 µM and 5.15 µM; in the test with MOLT-4 leukemia, 25.6 µM and 15.5 µM. Also, the TGI in the test with PC-3 prostate is 23.7 µM and 13.6 µM; in the test on SW-620 colon, 9.59 µM and 3.51 µM; in the test with DU-145 prostate, 13.5 µM and 5.95 µM; with OVCAR-8 ovarian, 3.39 µM and 11.1 µM.
`Cn1c(=O)nc2n(-c3ccc(Cl)cc3)c3cc(Cl)ccc3nc-2c1=O`: the TGI in the test with MDA-MB-231 breast stood at 6.91 µM; in the test with SK-MEL-28 melanoma, 7.19 µM; in the test on ACHN renal, 25.5 µM; with HL-60(TB) leukemia, 5.66 µM; in the test on SF-295 CNS, 23.7 µM; in the test on MOLT-4 leukemia, 16.5 µM. Moreover, the TGI in the test on PC-3 prostate was 24.1 µM; in the test on SW-620 colon it was 4.22 µM; with DU-145 prostate it was 29 µM; with OVCAR-8 ovarian, 6.2 µM.
For `CC1(C)N=C(N)N=C(N)N1c1ccc(Cl)cc1`, the GI50 in the test with MDA-MB-231 breast was > 100 µM; in the test with SK-MEL-28 melanoma, 53.5 µM; in the test with ACHN renal, 9.55 µM; with HL-60(TB) leukemia, > 100 µM; with SF-295 CNS it was 2.9 µM; with MOLT-4 leukemia it was 62.3 µM. Also, the GI50 with PC-3 prostate is 6.07 µM; in the test with SW-620 colon it was 0.832 µM; in the test with DU-145 prostate, 5.35 µM; in the test on OVCAR-8 ovarian, 2.17 µM. Besides, the TGI was > 100 µM in the test on MDA-MB-231 breast; > 100 µM with SK-MEL-28 melanoma; > 100 µM in the test with ACHN renal; > 100 µM in the test with HL-60(TB) leukemia; 9.94 µM in the test on SF-295 CNS; > 100 µM in the test on MOLT-4 leukemia. For the same compound, the TGI in the test with PC-3 prostate, in the test with SW-620 colon, in the test with DU-145 prostate and in the test on OVCAR-8 ovarian was > 100 µM in each case.
With `CC1=C(C)C(=O)O[C@@H]([C@](C)(O)[C@]2(O)CC[C@@]3(O)[C@@H]4C[C@H](O)[C@]5(O)[C@@H](O)C=CC(=O)[C@]5(C)[C@H]4CC[C@]23C)C1`, the TGI in the test on MDA-MB-231 breast was > 100 µM; in the test on SK-MEL-28 melanoma, > 100 µM; with ACHN renal, > 100 µM; with HL-60(TB) leukemia, 56.8 µM; in the test on SF-295 CNS, > 100 µM; with MOLT-4 leukemia, > 100 µM. For the same compound, the TGI in the test with PC-3 prostate, in the test on SW-620 colon, with DU-145 prostate and with OVCAR-8 ovarian was > 100 µM each time.
Turning to `COC1=C(C)C(=O)c2c(c(CCCl)c3n2CCC3OC(C)=O)C1=O` (stereo not given), the GI50 in the test with MDA-MB-231 breast was 17.5 µM; with SK-MEL-28 melanoma, 0.31 µM; with ACHN renal, 0.142 µM; with HL-60(TB) leukemia it was 2.43 µM; in the test with SF-295 CNS it was 0.153 µM; in the test on MOLT-4 leukemia it was 4.11 µM. The GI50 was 0.749 µM in the test with PC-3 prostate, 0.453 µM with SW-620 colon, 0.0248 µM in the test on DU-145 prostate and 0.897 µM in the test with OVCAR-8 ovarian. Moreover, the TGI is 61.7 µM in the test with MDA-MB-231 breast; 1.09 µM with SK-MEL-28 melanoma; 0.417 µM in the test with ACHN renal; 33.6 µM in the test with HL-60(TB) leukemia; 0.864 µM in the test with SF-295 CNS; > 100 µM in the test with MOLT-4 leukemia. For the same compound, the TGI with PC-3 prostate amounted to 14.3 µM; with SW-620 colon, 12.3 µM; in the test with DU-145 prostate it was 1.69 µM; in the test with OVCAR-8 ovarian it was 19.4 µM.
With `CCCCCCn1c(SC)nc(COC(=O)NC)c1COC(=O)NC`, the TGI came to 32.8 µM in the test with MDA-MB-231 breast; 32.4 µM in the test with SK-MEL-28 melanoma; 30.5 µM in the test with ACHN renal; 56 µM with HL-60(TB) leukemia; 35.1 µM in the test with SF-295 CNS; 53.8 µM in the test on MOLT-4 leukemia. Besides, the TGI with PC-3 prostate was found to be 31.8 µM; in the test with SW-620 colon, 64.4 µM; in the test on DU-145 prostate it was 30.1 µM; in the test with OVCAR-8 ovarian, 34.3 µM.
On to `CC(C)(C)CC(C)(C)c1ccc(O)c(Cc2ccc(Cl)cc2Cl)c1`, for which the GI50 in the test with MDA-MB-231 breast was 1.56 µM; with SK-MEL-28 melanoma, 1.61 µM; with ACHN renal, 1.68 µM; in the test with HL-60(TB) leukemia, 2.01 µM; in the test with SF-295 CNS, 1.62 µM; in the test on MOLT-4 leukemia, 1.66 µM. Moreover, the GI50 is 1.54 µM in the test on PC-3 prostate, 1.64 µM in the test with SW-620 colon, 1.69 µM with DU-145 prostate and 1.61 µM with OVCAR-8 ovarian. The TGI in the test on MDA-MB-231 breast was found to be 2.92 µM; with SK-MEL-28 melanoma, 2.96 µM; in the test with ACHN renal, 3.05 µM; in the test on HL-60(TB) leukemia, 3.72 µM; with SF-295 CNS, 2.98 µM; with MOLT-4 leukemia, 3.44 µM. Besides, the TGI amounted to 2.88 µM in the test with PC-3 prostate, 2.99 µM in the test with SW-620 colon, 3.05 µM with DU-145 prostate and 2.96 µM with OVCAR-8 ovarian.
